Experimental findings from patent US20230265151A1, “GIP/GLP1 CO-AGONIST COMPOUNDS” (priority 2020, published 2023) are described below.

The EC50 is the concentration needed to bring the measured effect to its halfway point. A word on the Emax: it is the greatest response seen or fitted, relative to the assay's reference.

Like-named read-outs stand apart in the source and are kept apart here. Some results are limits rather than exact numbers.

Common to all, as to assay type: cell-based
For test [1], the target named is T1, hGIPR (Homo sapiens, UniProt P48546).
T1 construct: expressed in transfected cells
T1 sequence (P48546 22-466): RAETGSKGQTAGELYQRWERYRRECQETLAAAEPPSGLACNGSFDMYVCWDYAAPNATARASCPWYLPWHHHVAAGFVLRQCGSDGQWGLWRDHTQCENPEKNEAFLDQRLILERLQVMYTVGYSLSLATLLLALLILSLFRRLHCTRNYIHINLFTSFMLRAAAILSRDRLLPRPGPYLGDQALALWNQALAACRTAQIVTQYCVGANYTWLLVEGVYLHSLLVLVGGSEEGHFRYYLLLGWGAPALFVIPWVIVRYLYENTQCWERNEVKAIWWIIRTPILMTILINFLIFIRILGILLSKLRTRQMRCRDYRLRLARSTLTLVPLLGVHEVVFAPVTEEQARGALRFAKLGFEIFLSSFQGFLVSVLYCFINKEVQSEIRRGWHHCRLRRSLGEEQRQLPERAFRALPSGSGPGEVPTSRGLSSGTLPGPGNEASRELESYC
Briefly: Functional cAMP formation (HTRF) in HEK-293 clonal cells expressing hGIPR, 0.1% bovine casein, without or with 1.0% human serum albumin. To be noted: for EC50: geometric mean, read-out: hGIPR EC50, nM (SEM, n); for Emax: read-out: hGIPR Emax, % ± SEM. The essentials: (§1)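 Cells were stimulated with peptide for 30 min at 37° C, then intracellular cAMP was measured by competitive HTRF (665/620 nm ratio) and converted to nM using a cAMP standard curve. Relative EC50 and Emax came from four-parameter logistic fits of percent maximal response against peptide concentration.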

The target in test [2] is T2, hGCGR (Homo sapiens, UniProt P47871).
T2 construct: expressed in transfected cells
T2 sequence (P47871 26-477): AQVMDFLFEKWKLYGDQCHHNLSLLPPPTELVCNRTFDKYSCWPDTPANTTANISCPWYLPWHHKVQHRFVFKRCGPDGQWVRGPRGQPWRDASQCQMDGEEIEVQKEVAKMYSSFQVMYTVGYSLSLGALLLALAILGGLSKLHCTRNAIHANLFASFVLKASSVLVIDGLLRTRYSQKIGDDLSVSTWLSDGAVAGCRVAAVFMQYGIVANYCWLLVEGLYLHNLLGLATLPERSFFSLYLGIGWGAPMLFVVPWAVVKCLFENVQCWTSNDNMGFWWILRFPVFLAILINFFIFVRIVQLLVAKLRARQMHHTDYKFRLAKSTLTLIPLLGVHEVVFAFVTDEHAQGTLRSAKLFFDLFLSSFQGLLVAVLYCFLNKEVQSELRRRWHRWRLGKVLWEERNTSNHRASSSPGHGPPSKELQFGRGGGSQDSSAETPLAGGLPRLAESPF
Briefly: Functional cAMP formation (HTRF) in HEK-293 clonal cells expressing hGCGR, 0.1% bovine casein, without or with 1.0% human serum albumin. To be noted: geometric mean. In short, it runs like this:
as §1
In general terms: Cyclic AMP is a second messenger, typically raised through Gs and lowered through Gi signalling.

The target of test [3] is hGLP-1R (Homo sapiens, UniProt P43220). Briefly: Functional cAMP formation (HTRF) in HEK-293 clonal cells expressing hGLP-1R, 0.1% bovine casein, without or with 1.0% human serum albumin. Further details: expressed in transfected cells. To be noted: for EC50: geometric mean. In short, it runs like this: as §1
hGLP-1R, sequence (P43220 24-463): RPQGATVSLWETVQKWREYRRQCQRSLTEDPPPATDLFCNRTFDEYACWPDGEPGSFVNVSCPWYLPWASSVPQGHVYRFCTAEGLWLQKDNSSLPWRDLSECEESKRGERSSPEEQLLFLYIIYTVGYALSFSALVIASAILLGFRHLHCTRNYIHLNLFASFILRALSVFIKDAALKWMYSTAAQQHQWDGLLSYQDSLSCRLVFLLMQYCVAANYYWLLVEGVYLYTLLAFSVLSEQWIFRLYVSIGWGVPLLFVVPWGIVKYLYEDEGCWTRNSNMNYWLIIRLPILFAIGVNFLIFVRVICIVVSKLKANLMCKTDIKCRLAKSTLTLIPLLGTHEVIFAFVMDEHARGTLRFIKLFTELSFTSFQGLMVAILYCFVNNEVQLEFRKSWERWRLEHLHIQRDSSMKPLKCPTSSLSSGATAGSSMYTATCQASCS
Where [4] appears, read: cAMP, incubated at 37° C., 0.1% bovine casein (no human serum albumin).
[5] abbreviates: cAMP, incubated at 37° C., 0.1% bovine casein (no human serum albumin), read-out: hGCGR EC50, nM (SEM, n).
[6] abbreviates: HEK293, 0.1% bovine casein and 1.0% human serum albumin, 37° C., percent of maximal response to GIP(1-42)NH2.
Where [7] appears, read: 0.1% bovine casein and 1.0% human serum albumin, 37° C., read-out: hGCGR EC50, nM (SEM, n).
Where [8] appears, read: 0.1% bovine casein and 1.0% human serum albumin, 37° C., read-out: hGLP-1R EC50, nM (SEM, n).
The mark [9] stands for this setting: HEK293, 0.1% bovine casein and 1.0% human serum albumin, 37° C., percent of maximal response to GLP-1(7-36)NH2, read-out: hGLP-1R Emax, % ± SEM.
[10] abbreviates: hGCGR EC50, nM (SEM, n), cAMP, incubated at 37° C., 0.1% bovine casein (no human serum albumin).
The mark [11] stands for this setting: hGLP-1R EC50, nM (SEM, n), cAMP, incubated at 37° C., 0.1% bovine casein (no human serum albumin).

On to `CC[C@H](C)[C@H](NC(=O)[C@H](CC(C)C)NC(=O)[C@](C)(Cc1ccc(O)cc1)NC(=O)[C@@H](CCC(=O)O)NC(=O)[C@@H](NC(=O)[C@H](Cc1csc2ccccc12)NC(=O)[C@H](CCC(=O)O)NC(=O)C(C)(C)NC(=O)[C@H](CCC(N)=O)NC(=O)[C@H](C)NC(=O)[C@H](CCCCNC(=O)COCCOCCNC(=O)COCCOCCNC(=O)CC[C@H](NC(=O)CCCCCCCCCCCCC(=O)O)C(=O)O)NC(=O)[C@H](CCCN)NC(=O)[C@H](CC(=O)O)NC(=O)[C@H](CC(C)C)NC(=O)[C@](C)(CC(C)C)NC(=O)[C@@H](NC(=O)[C@H](CO)NC(=O)[C@H](Cc1ccncc1)NC(=O)[C@H](CC(=O)O)NC(=O)[C@H](CO)NC(=O)[C@@H](NC(=O)[C@](C)(Cc1ccccc1F)NC(=O)[C@@H](NC(=O)CNC(=O)[C@H](CCC(=O)O)NC(=O)C(C)(C)NC(=O)[C@@H](N)Cc1ccc(O)cc1)[C@@H](C)O)[C@@H](C)O)[C@@H](C)CC)[C@@H](C)CC)C(=O)N[C@@H](CCC(=O)O)C(=O)NCC(=O)NCC(=O)N[C@@H](CCCCNC(=O)COCCOCCNC(=O)COCCOCCNC(=O)CC[C@H](NC(=O)CCCCCCCCCCCCC(=O)O)C(=O)O)C(=O)N[C@@H](CO)C(=O)N[C@@H](CO)C(=O)NCC(=O)N[C@@H](C)C(=O)N1CCC[C@H]1C(=O)N1CCC[C@H]1C(=O)N1CCC[C@H]1C(=O)N[C@@H](CO)C(N)=O` [Example 147], for which the concentration for a half-maximal effect (EC50) was 0.0229 nM in test [1] (setting [4]); over 9950 nM in test [2] (setting [5]); 0.338 nM in test [3] (cAMP, incubated at 37° C., 0.1% bovine casein (no human serum albumin), read-out: hGLP-1R EC50, nM (SEM, n)). In test [3] (HEK293, percent of maximal response to GLP-1(7-36)NH2, 37° C., 0.1% bovine casein, arithmetic mean, read-out: hGLP-1R Emax, % ± SEM), the Emax amounted to 93.5%.

With `CC[C@H](C)[C@H](NC(=O)[C@H](CC(C)C)NC(=O)[C@](C)(Cc1ccc(O)cc1)NC(=O)[C@@H](CCC(=O)O)NC(=O)[C@@H](NC(=O)[C@H](Cc1ccccc1)NC(=O)[C@H](CCCN)NC(=O)C(C)(C)NC(=O)[C@H](CCC(N)=O)NC(=O)[C@H](C)NC(=O)[C@H](CCCCNC(=O)COCCOCCNC(=O)COCCOCCNC(=O)CC[C@H](NC(=O)CCCCCCCCCCCCC(=O)O)C(=O)O)NC(=O)[C@H](CCCN)NC(=O)[C@H](CC(=O)O)NC(=O)[C@H](CC(C)C)NC(=O)[C@](C)(CC(C)C)NC(=O)[C@@H](NC(=O)[C@H](CO)NC(=O)[C@H](Cc1ccncc1)NC(=O)[C@H](CC(=O)O)NC(=O)[C@H](CO)NC(=O)[C@@H](NC(=O)[C@](C)(Cc1ccccc1F)NC(=O)[C@@H](NC(=O)CNC(=O)[C@H](CCC(=O)O)NC(=O)C(C)(C)NC(=O)[C@@H](N)Cc1ccc(O)cc1)[C@@H](C)O)[C@@H](C)O)[C@@H](C)CC)[C@@H](C)CC)C(=O)N[C@@H](CCC(=O)O)C(=O)NCC(=O)NCC(=O)N[C@@H](CCCCNC(=O)COCCOCCNC(=O)COCCOCCNC(=O)CC[C@H](NC(=O)CCCCCCCCCCCCC(=O)O)C(=O)O)C(=O)N[C@@H](CO)C(=O)N[C@@H](CO)C(=O)NCC(=O)N[C@@H](C)C(=O)N1CCC[C@H]1C(=O)N1CCC[C@H]1C(=O)N1CCC[C@H]1C(=O)N[C@@H](CO)C(N)=O` [Example 150], the EC50 in test [1] (0.1% bovine casein and 1.0% human serum albumin, 37° C.) was 0.35 nM; in test [2] (setting [7]), over 9950 nM; in test [2] (setting [5]) it was over 9950 nM; in test [3] (setting [8]), 11 nM. Moreover, the Emax in test [1] (setting [6]) amounted to 81.3 ± 3.18%; in test [3] (setting [9]), 100 ± 3.8%.

With `CC[C@H](C)[C@H](NC(=O)[C@H](CC(C)C)NC(=O)[C@](C)(Cc1ccc(O)cc1)NC(=O)[C@@H](CCC(=O)O)NC(=O)[C@@H](NC(=O)[C@H](Cc1cccc2ccccc12)NC(=O)[C@H](CCC(=O)O)NC(=O)C(C)(C)NC(=O)[C@H](CCC(N)=O)NC(=O)[C@H](C)NC(=O)[C@H](CCCCNC(=O)COCCOCCNC(=O)COCCOCCNC(=O)CC[C@H](NC(=O)CCCCCCCCCCCCC(=O)O)C(=O)O)NC(=O)[C@H](CCCN)NC(=O)[C@H](CC(=O)O)NC(=O)[C@H](CC(C)C)NC(=O)[C@](C)(CC(C)C)NC(=O)[C@@H](NC(=O)[C@H](CO)NC(=O)[C@H](Cc1ccncc1)NC(=O)[C@H](CC(=O)O)NC(=O)[C@H](CO)NC(=O)[C@@H](NC(=O)[C@](C)(Cc1ccccc1F)NC(=O)[C@@H](NC(=O)CNC(=O)[C@H](CCC(=O)O)NC(=O)C(C)(C)NC(=O)[C@@H](N)Cc1ccc(O)cc1)[C@@H](C)O)[C@@H](C)O)[C@@H](C)CC)[C@@H](C)CC)C(=O)N[C@@H](CCC(=O)O)C(=O)NCC(=O)NCC(=O)N[C@@H](CCCCNC(=O)COCCOCCNC(=O)COCCOCCNC(=O)CC[C@H](NC(=O)CCCCCCCCCCCCC(=O)O)C(=O)O)C(=O)N[C@@H](CO)C(=O)N[C@@H](CO)C(=O)NCC(=O)N[C@@H](C)C(=O)N1CCC[C@H]1C(=O)N1CCC[C@H]1C(=O)N1CCC[C@H]1C(=O)N[C@@H](CO)C(N)=O` [Example 66], the Emax in test [1] (setting [6]) is 90.6 ± 3.37%; in test [1] (HEK293, percent of maximal response to GIP(1-42)NH2, 37° C., 0.1% bovine casein, arithmetic mean) it was 93.5 ± 1.39%; in test [3] (setting [9]) it was 93 ± 2.36%. In addition, the EC50 in test [1] (setting [4]) was 0.0168 nM; in test [2] (setting [7]) it was over 9950 nM; in test [2] (setting [5]), over 9950 nM; in test [3] (setting [8]), 27 nM.

Consider `CC[C@H](C)[C@H](NC(=O)[C@H](CC(C)C)NC(=O)[C@](C)(Cc1ccc(O)cc1)NC(=O)[C@H](CCCCNC(=O)COCCOCCNC(=O)COCCOCCNC(=O)CC[C@H](NC(=O)CCCCCCCCCCCCC(=O)O)C(=O)O)NC(=O)[C@@H](NC(=O)[C@](C)(Cc1ccccc1)NC(=O)[C@H](CCC(=O)O)NC(=O)C(C)(C)NC(=O)[C@H](CCC(N)=O)NC(=O)[C@H](C)NC(=O)[C@H](CCCCNC(=O)COCCOCCNC(=O)COCCOCCNC(=O)CC[C@H](NC(=O)CCCCCCCCCCCCC(=O)O)C(=O)O)NC(=O)[C@H](CCCN)NC(=O)[C@H](CC(=O)O)NC(=O)[C@H](CC(C)C)NC(=O)[C@](C)(CC(C)C)NC(=O)[C@@H](NC(=O)[C@H](CO)NC(=O)C1(NC(=O)[C@H](CC(=O)O)NC(=O)[C@H](CO)NC(=O)[C@@H](NC(=O)[C@](C)(Cc2ccccc2F)NC(=O)[C@@H](NC(=O)CNC(=O)[C@H](CCC(=O)O)NC(=O)C(C)(C)NC(=O)[C@@H](N)Cc2ccc(O)cc2)[C@@H](C)O)[C@@H](C)O)CCCC1)[C@@H](C)CC)[C@@H](C)CC)C(=O)N[C@@H](CCC(=O)O)C(=O)NCC(=O)NCC(=O)N1CCC[C@H]1C(=O)N[C@@H](CO)C(=O)N[C@@H](CO)C(=O)NCC(=O)N[C@@H](C)C(=O)N1CCC[C@H]1C(=O)N1CCC[C@H]1C(=O)N1CCC[C@H]1C(=O)N[C@@H](CO)C(N)=O` [Example 120], for which the values for the 50% effective concentration (EC50) in test [2] (setting [10]) and in test [3] (setting [11]) were over 9950 nM and 1.43 nM, respectively.

`CC[C@H](C)[C@H](NC(=O)[C@H](CC(C)C)NC(=O)[C@](C)(Cc1ccc(O)cc1)NC(=O)[C@@H](CCC(=O)O)NC(=O)[C@@H](NC(=O)[C@H](Cc1ccccc1)NC(=O)[C@H](CCC(=O)O)NC(=O)C(C)(C)NC(=O)[C@H](CCC(N)=O)NC(=O)[C@H](C)NC(=O)[C@H](CCCCNC(=O)COCCOCCNC(=O)COCCOCCNC(=O)CC[C@H](NC(=O)CCCCCCCCCOc1ccc(C(=O)O)cc1)C(=O)O)NC(=O)[C@H](CCCN)NC(=O)[C@H](CC(=O)O)NC(=O)[C@H](CC(C)C)NC(=O)[C@](C)(CC(C)C)NC(=O)[C@@H](NC(=O)[C@H](CO)NC(=O)[C@H](Cc1ccncc1)NC(=O)[C@H](CC(=O)O)NC(=O)[C@H](CO)NC(=O)[C@@H](NC(=O)[C@](C)(Cc1ccccc1F)NC(=O)[C@@H](NC(=O)CNC(=O)[C@H](CCC(=O)O)NC(=O)C(C)(C)NC(=O)[C@@H](N)Cc1ccc(O)cc1)[C@@H](C)O)[C@@H](C)O)[C@@H](C)CC)[C@@H](C)CC)C(=O)N[C@@H](CCCCNC(=O)COCCOCCNC(=O)COCCOCCNC(=O)CC[C@H](NC(=O)CCCCCCCCCOc1ccc(C(=O)O)cc1)C(=O)O)C(=O)NCC(=O)NCC(=O)N1CCC[C@H]1C(=O)N[C@@H](CO)C(=O)N[C@@H](CO)C(=O)NCC(=O)N[C@@H](C)C(=O)N1CCC[C@H]1C(=O)N1CCC[C@H]1C(=O)N1CCC[C@H]1C(=O)N[C@@H](CO)C(N)=O` [Example 129]: the figures for the concentration for a half-maximal effect (EC50) in test [2] (setting [10]) and in test [3] (setting [11]) were over 9950 nM and 1.28 nM, respectively. For the same compound, the Emax in test [3] (HEK293, read-out: hGLP-1R Emax, % ± SEM, percent of maximal response to GLP-1(7-36)NH2, 37° C., 0.1% bovine casein, arithmetic mean) is 97.9%.
